Values quoted from earlier work in US20050281896A1, “Nutritional composition for increasing creatine uptake in skeletal muscle” (priority 2004, published 2005).

What was measured:
[1] = molecular target: angiotensin converting enzyme (ACE) (Homo sapiens, UniProt P12821)
[2] = in vivo

angiotensin converting enzyme (ACE), sequence (P12821 30-1306, species assumed): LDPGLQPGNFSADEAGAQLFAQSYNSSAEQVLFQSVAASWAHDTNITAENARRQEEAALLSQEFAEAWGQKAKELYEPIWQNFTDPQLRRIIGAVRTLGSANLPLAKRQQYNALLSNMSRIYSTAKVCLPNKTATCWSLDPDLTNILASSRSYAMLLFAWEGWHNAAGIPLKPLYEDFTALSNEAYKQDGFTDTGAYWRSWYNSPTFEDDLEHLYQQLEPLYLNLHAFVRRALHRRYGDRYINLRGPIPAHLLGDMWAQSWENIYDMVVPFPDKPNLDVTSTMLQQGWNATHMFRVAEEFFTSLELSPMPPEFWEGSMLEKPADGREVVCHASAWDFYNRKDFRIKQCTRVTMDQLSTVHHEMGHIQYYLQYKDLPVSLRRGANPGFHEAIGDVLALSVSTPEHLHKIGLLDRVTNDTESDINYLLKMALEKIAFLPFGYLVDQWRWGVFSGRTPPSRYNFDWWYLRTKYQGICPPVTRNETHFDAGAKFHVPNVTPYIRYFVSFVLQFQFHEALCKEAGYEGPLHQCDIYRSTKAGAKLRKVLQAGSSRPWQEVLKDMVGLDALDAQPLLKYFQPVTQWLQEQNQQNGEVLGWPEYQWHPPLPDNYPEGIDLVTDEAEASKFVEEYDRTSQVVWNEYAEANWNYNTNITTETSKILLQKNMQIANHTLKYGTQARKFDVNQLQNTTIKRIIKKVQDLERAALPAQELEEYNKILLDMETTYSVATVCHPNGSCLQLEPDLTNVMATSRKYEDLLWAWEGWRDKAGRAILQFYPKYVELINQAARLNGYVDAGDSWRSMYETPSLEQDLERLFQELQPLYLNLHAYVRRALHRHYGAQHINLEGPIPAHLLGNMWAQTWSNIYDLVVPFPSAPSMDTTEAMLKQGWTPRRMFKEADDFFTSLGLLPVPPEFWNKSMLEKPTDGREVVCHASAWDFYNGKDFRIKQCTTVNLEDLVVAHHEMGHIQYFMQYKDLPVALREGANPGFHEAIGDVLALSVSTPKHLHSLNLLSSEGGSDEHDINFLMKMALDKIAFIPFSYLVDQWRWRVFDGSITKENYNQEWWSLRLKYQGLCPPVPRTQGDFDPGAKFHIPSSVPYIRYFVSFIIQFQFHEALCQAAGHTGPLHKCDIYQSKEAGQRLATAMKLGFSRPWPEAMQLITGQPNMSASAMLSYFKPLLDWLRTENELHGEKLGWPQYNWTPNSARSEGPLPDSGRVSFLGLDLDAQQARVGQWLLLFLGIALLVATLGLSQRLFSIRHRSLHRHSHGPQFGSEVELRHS

Row | SMILES | effect on angiotensin converting enzyme (ACE) [1] | effect on blood pressure [2] | increase of the metabolic clearance rate of glucose (diabetics) [%] | body's utilization of blood sugar (type II diabetics)
1 | O=C(/C=C/c1ccc(O)c(O)c1)c1ccc(O)cc1O [butein, 3,4,2′,4′-tetrahydroxychalcone] | inhibition | hypotensive effects |  | 
2 | O=C(O)CCCC[C@@H]1CCSS1 (stereo in doubt) [alpha lipoic acid, 1,2-dithiolane-3-pentanoic acid] |  |  | 50 | significantly increase
